What was measured:
[1] = Preparation of liposome from mixed lipid (dispersion in water, high-pressure extrusion); type: physicochemical; conditions: mixed lipid compound/cholesterol/PEG-Glu2C18 dispersed in water, high-pressure extrusion 0.22 μm
Description: Compound 7, 8 or 9 (0.177 mmol), cholesterol (0.179 mmol) and PEG-Glu2C18 (1.0 μmol) were dissolved in benzene, and the mixture was freeze-dried to prepare a mixed lipid. 20 mg of this mixed lipid was dispersed in 1 mL of water for injection, and the resultant mixture was stirred for 6 hours. After that, liposome having a particle size of about 240 nm was prepared by means of the high-pressure extrusion method (final pore diameter: 0.22 μm).
Compound 3, 12 or 13 (0.177 mmol), cholesterol (0.179 mmol) and PEG-Glu2C18 (1.0 mmol) were dissolved in benzene, and the mixture was freeze-dried to prepare a mixed lipid. 20 mg of this mixed lipid was dispersed in 1 mL of water for injection, and the resultant mixture was stirred for 6 hours. After that, liposome having a particle size of about 240 nm was prepared by means of the high-pressure extrusion method (final pore diameter: 0.22 μm).

[2] = Measurement of zeta potential of liposomes; type: physicochemical; conditions: liposome compound/cholesterol/PEG-Glu2C18 (5/5/0.03 molar ratio); acetate buffers 20 mM; 37°C
Description: Portions of the prepared liposome ([lipid]=10 mg/ml) were respectively added to acetate buffers with different pHs (7.4, 7, 6, 5, 4) (30 mM) to the final concentration of [lipid]=1 mg/mL, and then the zeta potential at 37° C. was measured. Zetasizer 4 manufactured by Malvern was used. A capillary cell was filled with a liposome-dispersed liquid obtained by dilution to the measurement concentration, and the measurement was performed at 37° C. 3 times.
Portions of the prepared liposome ([lipid]=10 mg/ml) were respectively added to acetate buffers with different pHs (7.4, 7, 6, 5, 4) (20 mM) to the final concentration of [lipid]=1 mg/mL, and then the zeta potential at 37° C. was measured.
Portions of each of the prepared liposomes ([lipid]=10 mg/ml) were respectively added to acetate buffers with different pHs (7.4, 7, 6, 5, 4) (20 mM) to the final concentration of [lipid]=1 mg/mL, and then the zeta potential at 37° C. was measured.

[3] = Degree of fusion with anionic liposome (Example 9); conditions: liposome compound/cholesterol/PEG-Glu2C18, 37°C, 30 minutes
Description: In a manner similar to that in Example 2, the degree of fusion of the pH-responsive liposome with respect to the anionic liposome (DOPC/DPPG, 5/1 (molar ratio)) was calculated. The measurement method was as follows. 50 μL of 1 mM anionic liposome and 50 μL of 9 mM (converted to the mixed lipid basis) pH-responsive liposome were added to 1.9 mL of each of acetate buffers with different pHs and allowed to stand at 37° C. 30 minutes later, […] of the mixture was dividedly poured and added to 1.9 mL of HEPES buffer (pH 7.4). The resultant mixture was transferred to a quartz cell and subjected to fluorescence measurement (λex: 460 nm, 530 nm). The measurement was carried out using RF-5300PC manufactured by Shimadzu.

## CCCCCCCCCCCCCCCCOC(=O)CCC(NC(=O)C(CCCCNC(=O)C(N)CC(=O)O)NC(=O)C(N)CC(=O)O)C(=O)OCCCCCCCCCCCCCCCC (stereo not shown) [Compound 9]
[1]
  liposome formation with the compound as main component: aggregated

## CCCCCCCCCCCCCCCCOC(=O)CCC(NC(=O)C(CCCCNC(=O)C(N)CC(=O)O)NC(=O)C(N)CCC(=O)O)C(=O)OCCCCCCCCCCCCCCCC (stereo not shown) [Compound 7]
[2]
  pH at which the zeta potential changed from negative to positive: about 5.5
[1]
  liposome formation with the compound as main component: liposome was formed

## CCCCCCCCCCCCCCCCOC(=O)CCC(NC(=O)C(CCCCNC(=O)C(N)CCC(=O)O)NC(=O)C(N)CC(=O)O)C(=O)OCCCCCCCCCCCCCCCC (stereo not shown) [Compound 8]
[2]
  pH at which the zeta potential changed from negative to positive: about 4.8
[1]
  liposome formation with the compound as main component: liposome was formed

## CCCCCCCCCCCCCCCCCCOC(=O)CCC(NC(=O)C(CCCCNC(=O)C(N)CCC(=O)O)NC(=O)C(N)CCC(=O)O)C(=O)OCCCCCCCCCCCCCCCCCC (stereo not shown) [Compound 13]
[1]
  liposome formation with the compound as main component: poor dispersibility

## CCCCCCCCCCCCCCOC(=O)CCC(NC(=O)C(CCCCNC(=O)C(N)CCC(=O)O)NC(=O)C(N)CCC(=O)O)C(=O)OCCCCCCCCCCCCCC (stereo not shown) [Compound 12]
[2]
  pH at which the zeta potential changed from negative to positive: about 7.0
[1]
  liposome formation with the compound as main component: liposome was formed
[3]; pH 6.5 (maximum)
  degree of fusion: over 65%
[3]; pH 7.4
  degree of fusion: about 45%

From US8241647B2, “Amphiphilic molecule, molecular assembly comprising the amphiphilic molecule, and use of the molecular assembly” (Waseda University, priority 2007, dated 2012)
